{
  "source": "patent US5830697A",
  "about": "“P-glycoprotein mutant resistant to cyclosporin modulation” (The Board of Trustees of the Leland Stanford Junior …, priority 1997, dated 1998)",
  "key": {"Dx/PBS cells": {"tested_on": "Dx/PBS cells", "assay": "MTT assay, DxP subclone", "type": "cell-based, human", "procedure": "(§1) Growth Inhibition Assay. Approximately 8000 cells per well were seeded in 96 well plates and incubated with or without drugs for 72 hr at 37° C. in an atmosphere of 5% CO2. Growth inhibition was evaluated by the MTT colorimetric assay in triplicate or quadruplicate as previously described. The absorbance was measured with a ThermoMax microplate reader (Molecular Devices, Menlo Park, Calif.). The IC50 (drug concentration resulting in 50% inhibition of MTT dye formation, compared to controls) was determined directly from semi-logarithmic dose-response curves. The doubling times of MES-SA, D×5, and D×P were determined as previously described.\n(§2) Reversal of MDR by Modulators. […] The modulation ratio was obtained by comparing IC50 s in the presence and absence of modulators.\n(§3) Clonal Analysis of D×P cells. Subcloning of cells was performed by limiting dilution. Both resistant and revertant clones were analyzed for the MDR phenotype, drug accumulation, and rt-PCR or heteroduplex as described above."}, "Dx/PFS cells": {"tested_on": "Dx/PFS cells", "assay": "MTT assay, DxP subclone", "type": "cell-based, human", "procedure": "as §1, §2, §3"}, "Dx/PDS cells": {"tested_on": "Dx/PDS cells", "assay": "MTT assay, DxP subclone", "type": "cell-based, human", "procedure": "as §1, §2, §3"}, "Dx/PES cells": {"tested_on": "Dx/PES cells", "assay": "MTT assay, DxP subclone", "type": "cell-based, human", "procedure": "as §1, §2, §3"}, "Dx/PAS cells": {"tested_on": "Dx/PAS cells", "assay": "MTT assay, DxP subclone", "type": "cell-based, human", "procedure": "as §1, §2, §3"}, "Dx/PMS cells": {"tested_on": "Dx/PMS cells", "assay": "MTT assay, DxP subclone", "type": "cell-based, human", "procedure": "as §1, §2, §3"}, "Dx/PHS cells": {"tested_on": "Dx/PHS cells", "assay": "MTT assay, DxP subclone", "type": "cell-based, human", "procedure": "as §1, §2, §3"}, "Dx/PIS cells": {"tested_on": "Dx/PIS cells", "assay": "MTT assay, DxP subclone", "type": "cell-based, human", "procedure": "as §1, §2, §3"}, "Dx/PCS cells": {"tested_on": "Dx/PCS cells", "assay": "MTT assay, DxP subclone", "type": "cell-based, human", "procedure": "as §1, §2, §3"}, "Dx/PGS cells": {"tested_on": "Dx/PGS cells", "assay": "MTT assay, DxP subclone", "type": "cell-based, human", "procedure": "as §1, §2, §3"}, "Dx/PJS cells": {"tested_on": "Dx/PJS cells", "assay": "MTT assay, DxP subclone", "type": "cell-based, human", "procedure": "as §1, §2, §3"}, "MES-SA/Dx5 (Dx5) cells": {"tested_on": "MES-SA/Dx5 (Dx5) cells", "assay": "Growth inhibition (MTT) assay, with or without MDR modulators", "type": "cell-based, human", "procedure": "(§4) Cells and Tissue Culture. Details of the development and characterization of the human cell line MES-SA and its MDR variant MES-SA/Dx5 (D×5), which were derived from sarcoma elements of a uterine mixed Mullerian tumor, are described in Harker and Sikic (1985) Cancer Research 45:3810-3815. MES-SA/DxP5002 (DxP) cells were derived from Dx5.05 cells (D×5 cells selected and maintained at a DOX concentration of 0.5 μM) by step-wise selection in the presence of increasing DOX concentrations (from 40 nM up to 0.5 μM) and a constant PSC 833 concentration at 2 μM over a one-year period. Monolayer cultures of MES-SA cells and its variants were grown in McCoy's medium (Irvine Scientific, Santa Ana, Calif.) supplemented with 10% newborn calf serum (Gibco, Grand Island, N.Y.), 2 mM L-glutamine, and antibiotics(100 U/ml penicillin, 100 μg/ml streptomycin).\nas §1, §2"}, "MES-SA cells": {"tested_on": "MES-SA cells", "assay": "Growth inhibition (MTT) assay, with or without MDR modulators", "type": "cell-based, human", "conditions": "MES-SA cells", "procedure": "as §4, §1, §2"}, "[1]": {"tested_on": "MES-SA/DxP5002 (DxP) cells", "assay": "Growth inhibition (MTT) assay, with or without MDR modulators", "procedure": "Cells and Tissue Culture. […] Monolayer cultures of MES-SA cells and its variants were grown in McCoy's medium (Irvine Scientific, Santa Ana, Calif.) supplemented with 10% newborn calf serum (Gibco, Grand Island, N.Y.), 2 mM L-glutamine, and antibiotics(100 U/ml penicillin, 100 μg/ml streptomycin).\nGrowth Inhibition Assay. Approximately 8000 cells per well were seeded in 96 well plates and incubated with or without drugs for 72 hr at 37° C. in an atmosphere of 5% CO2. Growth inhibition was evaluated by the MTT colorimetric assay in triplicate or quadruplicate as previously described. The absorbance was measured with a ThermoMax microplate reader (Molecular Devices, Menlo Park, Calif.). […] The doubling times of MES-SA, D×5, and D×P were determined as previously described.\nas §2"}},
  "data": [
    {"smiles": "COc1cccc2c1C(=O)c1c(O)c3c(c(O)c1C2=O)C[C@@](O)(C(=O)CO)C[C@@H]3O[C@H]1C[C@H](N)[C@H](O)[C@H](C)O1", "note": "[Doxorubicin]", "values": [
      {"measurement": "fold resistance relative to MES-SA", "setting": "Dx/PBS cells; + PSC", "value": 13, "unit": "fold"},
      {"measurement": "fold resistance relative to MES-SA", "setting": "Dx/PBS cells; no modulator", "value": 67, "unit": "fold"},
      {"measurement": "fold resistance relative to MES-SA", "setting": "Dx/PFS cells; + PSC", "value": 75, "unit": "fold"},
      {"measurement": "fold resistance relative to MES-SA", "setting": "Dx/PFS cells; no modulator", "value": 150, "unit": "fold"},
      {"measurement": "fold resistance relative to MES-SA", "setting": "Dx/PDS cells; + PSC", "value": 100, "unit": "fold"},
      {"measurement": "fold resistance relative to MES-SA", "setting": "Dx/PDS cells; no modulator", "value": 150, "unit": "fold"},
      {"measurement": "fold resistance relative to MES-SA", "setting": "Dx/PES cells; + PSC", "value": 100, "unit": "fold"},
      {"measurement": "fold resistance relative to MES-SA", "setting": "Dx/PES cells; no modulator", "value": 96, "unit": "fold"},
      {"measurement": "fold resistance relative to MES-SA", "setting": "Dx/PAS cells; + PSC", "value": 51, "unit": "fold"},
      {"measurement": "fold resistance relative to MES-SA", "setting": "Dx/PAS cells; no modulator", "value": 163, "unit": "fold"},
      {"measurement": "fold resistance relative to MES-SA", "setting": "Dx/PMS cells; + PSC", "value": 50, "unit": "fold"},
      {"measurement": "fold resistance relative to MES-SA", "setting": "Dx/PMS cells; no modulator", "value": 100, "unit": "fold"},
      {"measurement": "fold resistance relative to MES-SA", "setting": "Dx/PHS cells; + PSC", "value": 37, "unit": "fold"},
      {"measurement": "fold resistance relative to MES-SA", "setting": "Dx/PHS cells; no modulator", "value": 83, "unit": "fold"},
      {"measurement": "fold resistance relative to MES-SA", "setting": "Dx/PIS cells; + PSC", "value": 3, "unit": "fold"},
      {"measurement": "fold resistance relative to MES-SA", "setting": "Dx/PIS cells; no modulator", "value": 13, "unit": "fold"},
      {"measurement": "fold resistance relative to MES-SA", "setting": "Dx/PCS cells; + PSC", "value": 23, "unit": "fold"},
      {"measurement": "fold resistance relative to MES-SA", "setting": "Dx/PCS cells; no modulator", "value": 50, "unit": "fold"},
      {"measurement": "fold resistance relative to MES-SA", "setting": "Dx/PGS cells; + PSC", "value": 7, "unit": "fold"},
      {"measurement": "fold resistance relative to MES-SA", "setting": "Dx/PGS cells; no modulator", "value": 7, "unit": "fold"},
      {"measurement": "fold resistance relative to MES-SA", "setting": "Dx/PJS cells; + PSC", "value": 75, "unit": "fold"},
      {"measurement": "fold resistance relative to MES-SA", "setting": "Dx/PJS cells; no modulator", "value": 175, "unit": "fold"},
      {"measurement": "Fold resistance", "setting": "MES-SA/Dx5 (Dx5) cells; +2 μM PSC 833", "value": 1, "unit": "fold"},
      {"measurement": "Fold resistance", "setting": "MES-SA/Dx5 (Dx5) cells; +3 μM cyclosporin A", "value": 2, "unit": "fold"},
      {"measurement": "Fold resistance", "setting": "MES-SA/Dx5 (Dx5) cells; +6 μM Verapamil", "value": 4, "unit": "fold"},
      {"measurement": "Fold resistance", "setting": "MES-SA/Dx5 (Dx5) cells; no modulator, relative to MES-SA", "value": 80, "unit": "fold"},
      {"measurement": "IC50", "setting": "MES-SA cells; Homo sapiens, 72 hr MTT, read-out: IC50 of drug-sensitive MES-SA cells (values in parenthesis)", "value": 40, "unit": "nM"},
      {"measurement": "Fold resistance", "setting": "MES-SA cells; +2 μM PSC 833", "value": 1, "unit": "fold"},
      {"measurement": "Fold resistance", "setting": "MES-SA cells; +3 μM cyclosporin A", "value": 0.5, "unit": "fold"},
      {"measurement": "Fold resistance", "setting": "MES-SA cells; +6 μM Verapamil", "value": 0.5, "unit": "fold"},
      {"measurement": "Fold resistance", "setting": "MES-SA cells; no modulator, 72 hr MTT", "value": 1, "unit": "fold"},
      {"measurement": "Level of resistance of DxP cells to the cytotoxin compared with parental Dx5 (in words)", "setting": "[1]; DxP cells", "value": "similar"},
      {"measurement": "Fold resistance", "setting": "[1]; DxP cells, +2 μM PSC 833", "value": 53, "unit": "fold"},
      {"measurement": "Fold resistance", "setting": "[1]; DxP cells, +3 μM cyclosporin A", "value": 30, "unit": "fold"},
      {"measurement": "Fold resistance", "setting": "[1]; DxP cells, +6 μM Verapamil", "value": 18, "unit": "fold"},
      {"measurement": "Fold resistance", "setting": "[1]; DxP cells, no modulator, relative to MES-SA", "value": 77, "unit": "fold"},
      {"measurement": "Dx5/DxP, fold of resistance difference in DxP cells compared with parental Dx5 cells", "setting": "[1]; DxP vs Dx5", "value": 1, "unit": "fold"}
    ]}
  ]
}
